Results from ChEMBL document CHEMBL1201862, “PubChem BioAssay data set” (2004).
Counter-ions that a name gives are not always drawn.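 Tested at 5 concentrations; 48 h exposure; 96-well plates; endpoints linearly interpolated, else capped at highest concentration. GI50 is the concentration that inhibits growth by half.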 Calls of active or inactive are those of the source. Rule as the data show it: active = GI50 up to about 1.1 µM and inactive = higher.

How the values were obtained:
Assay in all cases: inhibition of tumour cell growth, NCI panel, 48 h
NCI/ADR-RES = tested on: NCI/ADR-RES
HCT-15 = tested on: HCT-15
LOX IMVI = tested on: LOX IMVI
OVCAR-3 = tested on: OVCAR-3
SK-MEL-28 = tested on: SK-MEL-28
NCI-H460 = tested on: NCI-H460
OVCAR-4 = tested on: OVCAR-4
SNB-19 = tested on: SNB-19
ACHN = tested on: ACHN
MOLT-4 = tested on: MOLT-4
MDA-MB-231 = tested on: MDA-MB-231
HOP-62 = tested on: HOP-62
COLO 205 = tested on: COLO 205
SK-OV-3 = tested on: SK-OV-3
IGROV-1 = tested on: IGROV-1
BT-549 = tested on: BT-549
SF-295 = tested on: SF-295
SK-MEL-2 = tested on: SK-MEL-2
NCI-H522 = tested on: NCI-H522

Row | Compound | GI50 (NCI/ADR-RES) | GI50 (HCT-15) | GI50 (LOX IMVI) | GI50 (OVCAR-3) | GI50 (SK-MEL-28) | GI50 (NCI-H460) | GI50 (OVCAR-4) | GI50 (SNB-19) | GI50 (ACHN) | GI50 (MOLT-4) | GI50 (MDA-MB-231) | GI50 (HOP-62) | GI50 (COLO 205) | GI50 (SK-OV-3) | GI50 (IGROV-1) | GI50 (BT-549) | GI50 (SF-295) | GI50 (SK-MEL-2) | GI50 (NCI-H522)
1 | Cc1ccc(OCC2CO2)c(Br)c1 (stereo unspecified) | 15.8 µM (inactive) | 14 µM | 12.1 µM (inactive) | 25.1 µM (inactive) | 27.5 µM (inactive) | 21.9 µM (inactive) | 14.7 µM (inactive) | 41.3 µM (inactive) | 5.5 µM (inactive) | 7.83 µM (inactive) | 21.9 µM (inactive) | 39.4 µM (inactive) | 17.7 µM (inactive) | 19.1 µM (inactive) | 15.5 µM (inactive) | < 0.01 µM (active) | 21 µM (inactive) | – | –
2 | C=C(C)C1CCC(C(=O)O)CC1 (stereo unspecified) | – | > 100 µM | > 100 µM (inactive) | > 100 µM (inactive) | > 100 µM (inactive) | > 100 µM (inactive) | – | > 100 µM (inactive) | > 100 µM (inactive) | > 100 µM (inactive) | > 100 µM (inactive) | > 100 µM (inactive) | > 100 µM (inactive) | > 100 µM (inactive) | > 100 µM (inactive) | > 100 µM (inactive) | > 100 µM (inactive) | > 100 µM (inactive) | > 100 µM (inactive)
3 | O=C(/C=C/c1ccccc1)NNC(=O)c1c(Cl)c(Cl)c(Cl)c(Cl)c1-c1nc2ccccc2[nH]1 | 23.2 µM (inactive) | 24 µM | 27.1 µM (inactive) | 28.4 µM (inactive) | 39.5 µM (inactive) | 23.7 µM (inactive) | 49.4 µM (inactive) | – | 32.5 µM (inactive) | 32.4 µM (inactive) | – | 0.0442 µM (active) | 18 µM (inactive) | 0.0453 µM (active) | 6.49 µM (inactive) | 28.2 µM (inactive) | 0.0472 µM (active) | 39.4 µM (inactive) | 24.6 µM (inactive)
4 | CC1(C)CC(=O)C(=CNc2nc(-c3ccccc3)cs2)C(=O)C1 | 34.4 µM (inactive) | 20.2 µM | > 100 µM (inactive) | 40.7 µM (inactive) | 26.7 µM (inactive) | 30.7 µM (inactive) | 69.5 µM (inactive) | 71.4 µM (inactive) | 40.5 µM (inactive) | 32.4 µM (inactive) | 34.8 µM (inactive) | 34.2 µM (inactive) | 33 µM (inactive) | > 100 µM (inactive) | 26.6 µM (inactive) | – | 57.9 µM (inactive) | 34.7 µM (inactive) | –
5 | COc1cccc(-c2nc(-c3cnccn3)n(Cc3ccccc3)n2)c1 | – | > 100 µM | > 100 µM (inactive) | > 100 µM (inactive) | 86.1 µM (inactive) | > 100 µM (inactive) | 21.6 µM (inactive) | 90.4 µM (inactive) | – | > 100 µM (inactive) | > 100 µM (inactive) | 44.4 µM (inactive) | > 100 µM (inactive) | 75.9 µM (inactive) | 88.7 µM (inactive) | > 100 µM (inactive) | 54.3 µM (inactive) | – | 52.1 µM (inactive)
6 | C/C(=N\Nc1ccccc1Br)c1cccc(/C(C)=N/Nc2ccccc2Br)n1 | > 100 µM (inactive) | > 100 µM | > 100 µM (inactive) | 68.1 µM (inactive) | > 100 µM (inactive) | > 100 µM (inactive) | > 100 µM (inactive) | 63.1 µM (inactive) | > 100 µM (inactive) | > 100 µM (inactive) | 43.4 µM (inactive) | 49.8 µM (inactive) | 68.2 µM (inactive) | – | 80.7 µM (inactive) | > 100 µM (inactive) | 34.4 µM (inactive) | 39 µM (inactive) | –
7 | CCOC(CN(C)C(=O)Nc1ccc(Cl)c(Cl)c1)OCC | > 10 µM (inactive) | > 10 µM | > 10 µM (inactive) | > 10 µM (inactive) | > 10 µM (inactive) | > 10 µM (inactive) | > 10 µM (inactive) | > 10 µM (inactive) | > 10 µM (inactive) | > 10 µM (inactive) | > 10 µM (inactive) | > 10 µM (inactive) | > 10 µM (inactive) | > 10 µM (inactive) | > 10 µM (inactive) | – | > 10 µM (inactive) | > 10 µM (inactive) | > 10 µM (inactive)
8 | CP(=O)(O)C(N)c1ccccc1 (stereo unspecified) | > 100 µM (inactive) | > 100 µM | > 100 µM (inactive) | > 100 µM (inactive) | > 100 µM (inactive) | > 100 µM (inactive) | > 100 µM (inactive) | > 100 µM (inactive) | > 100 µM (inactive) | > 100 µM (inactive) | – | > 100 µM (inactive) | > 100 µM (inactive) | > 100 µM (inactive) | > 100 µM (inactive) | > 100 µM (inactive) | > 100 µM (inactive) | – | > 100 µM (inactive)
9 | CC1OCC2OC(C)OC(C3C4=C(CC(C)(C)CC4=O)OC4=C3C(=O)CC(C)(C)C4)C2O1 (stereo unspecified) | > 100 µM (inactive) | > 100 µM | > 100 µM (inactive) | > 100 µM (inactive) | > 100 µM (inactive) | > 100 µM (inactive) | – | > 100 µM (inactive) | > 100 µM (inactive) | > 100 µM (inactive) | > 100 µM (inactive) | > 100 µM (inactive) | > 100 µM (inactive) | > 100 µM (inactive) | – | – | > 100 µM (inactive) | > 100 µM (inactive) | > 100 µM (inactive)
10 | O=C(O)Cc1ccc(Nc2nc3ccccc3nc2C(=O)O)cc1 | > 100 µM (inactive) | > 100 µM | > 100 µM (inactive) | > 100 µM (inactive) | > 100 µM (inactive) | > 100 µM (inactive) | > 100 µM (inactive) | > 100 µM (inactive) | > 100 µM (inactive) | > 100 µM (inactive) | – | > 100 µM (inactive) | > 100 µM (inactive) | > 100 µM (inactive) | > 100 µM (inactive) | > 100 µM (inactive) | > 100 µM (inactive) | > 100 µM (inactive) | > 100 µM (inactive)
11 | C/C(=C\[Si](C)(C)c1ccco1)C(C)(O)[C@H](C)O (stereo partly specified) | 43.7 µM (inactive) | 31.6 µM | > 100 µM (inactive) | 54.5 µM (inactive) | > 100 µM (inactive) | 47.5 µM (inactive) | 2.9 µM (inactive) | > 100 µM (inactive) | 95.3 µM (inactive) | 33.4 µM (inactive) | > 100 µM (inactive) | > 100 µM (inactive) | 36.5 µM (inactive) | > 100 µM (inactive) | > 100 µM (inactive) | – | 49.4 µM (inactive) | 91.6 µM (inactive) | 30.3 µM (inactive)
12 | COc1ccc(N(c2ccc(C#N)cc2)c2ccc(C#N)cc2)cc1 | – | 75.2 µM | 69.8 µM (inactive) | 82.4 µM (inactive) | > 100 µM (inactive) | > 100 µM (inactive) | > 100 µM (inactive) | > 100 µM (inactive) | > 100 µM (inactive) | 5.2 µM (inactive) | > 100 µM (inactive) | > 100 µM (inactive) | 31.9 µM (inactive) | > 100 µM (inactive) | 23.7 µM (inactive) | > 100 µM (inactive) | > 100 µM (inactive) | > 100 µM (inactive) | 3.78 µM (inactive)
13 | O=C1O/C(=C/c2ccccc2)C(c2ccccc2)=C1O | 34.7 µM (inactive) | 34.4 µM | 36.6 µM (inactive) | 19.8 µM (inactive) | 35.5 µM (inactive) | – | 55.3 µM (inactive) | 47.5 µM (inactive) | 74 µM (inactive) | 53.3 µM (inactive) | 38.1 µM (inactive) | 29.4 µM (inactive) | > 100 µM (inactive) | 61.9 µM (inactive) | 40.6 µM (inactive) | – | 36.3 µM (inactive) | 17.5 µM (inactive) | 65 µM (inactive)
14 | CC1=CC2(C)C=C[C@@H]1C(=O)[C@@]1(C)CC[C@@](O)(C(C)C)[C@H]1CC2 | 20.2 µM (inactive) | 24.2 µM | 19.1 µM (inactive) | 16.1 µM (inactive) | 20.9 µM (inactive) | 18.4 µM (inactive) | 17.8 µM (inactive) | 23.6 µM (inactive) | 17.6 µM (inactive) | 24.8 µM (inactive) | 17.5 µM (inactive) | 20.2 µM (inactive) | 20.7 µM (inactive) | 23.6 µM (inactive) | 26.2 µM (inactive) | 33.8 µM (inactive) | 16.7 µM (inactive) | 33.3 µM (inactive) | –
15 | O=c1cc(-c2ccccc2F)[nH]c2ccc(N3CCCC3)cc12 | 0.0352 µM (active) | 0.033 µM | 0.0398 µM (active) | – | 0.465 µM (active) | 0.0417 µM (active) | 0.0269 µM (active) | 0.0214 µM (active) | < 0.001 µM (active) | 0.078 µM (active) | 0.00122 µM (active) | 0.34 µM (active) | 0.0557 µM (active) | > 100 µM (inactive) | 0.792 µM (active) | – | – | 0.0167 µM (active) | 0.0326 µM (active)
16 | CC1(C)CCC2=C(O1)c1ccccc1C(=O)C2=O [LAPACHONE] | – | – | – | 0.234 µM (active) | – | – | 0.684 µM (active) | – | – | 0.708 µM (active) | 0.507 µM (active) | 0.647 µM (active) | 1.91 µM (inactive) | 1.85 µM (inactive) | – | 0.721 µM (active) | 0.7 µM (active) | 1.42 µM (inactive) | 0.605 µM (active)
17 | CC(CN1c2ccccc2Sc2ccccc21)N(C)C (stereo unspecified) [PROMETHAZINE HYDROCHLORIDE] | 15.8 µM (inactive) | 17.5 µM | 18.9 µM (inactive) | 16.5 µM (inactive) | 17.8 µM (inactive) | 17.9 µM (inactive) | 16.4 µM (inactive) | 17.4 µM (inactive) | 17 µM (inactive) | 19.8 µM (inactive) | 17.9 µM (inactive) | 15.2 µM (inactive) | 14.1 µM (inactive) | 18.3 µM (inactive) | 20.1 µM (inactive) | – | 15.4 µM (inactive) | 18 µM (inactive) | 19.8 µM (inactive)
